Assay results taken from paper PMC4881748 (Journal of the American Chemical Society, 2016).

What was measured:
[1] = biological target: BoNT/A LC (Clostridium botulinum, UniProt P0DPI0); type: biochemical, C. botulinum
[2] = tested on: BoNT/A; conditions: cited from earlier work
[3] = tested on: BoNT/A SNAP-25 cleavage in hiPSC-derived neurons; type: cell-based, human
[4] = tested on: BoNT/A SNAP-25 cleavage in hiPSC-derived neurons; type: cell-based, human; remark: listed apart in the source

BoNT/A LC, sequence (P0DPI0 2-448 limits assumed): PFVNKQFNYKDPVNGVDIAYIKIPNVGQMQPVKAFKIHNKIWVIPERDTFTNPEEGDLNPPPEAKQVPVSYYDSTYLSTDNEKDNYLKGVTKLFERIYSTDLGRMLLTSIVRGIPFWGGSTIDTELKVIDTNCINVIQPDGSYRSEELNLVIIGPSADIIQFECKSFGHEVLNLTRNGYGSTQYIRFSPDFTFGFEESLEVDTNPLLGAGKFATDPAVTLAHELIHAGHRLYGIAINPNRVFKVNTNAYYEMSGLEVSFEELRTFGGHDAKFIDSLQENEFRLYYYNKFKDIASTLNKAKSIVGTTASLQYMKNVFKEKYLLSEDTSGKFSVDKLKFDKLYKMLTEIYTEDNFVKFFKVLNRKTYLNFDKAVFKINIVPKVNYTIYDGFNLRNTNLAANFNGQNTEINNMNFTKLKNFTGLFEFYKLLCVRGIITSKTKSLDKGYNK

| Compound | Inhibition in the LC enzyme assay [1] | Inhibition of SNAP-25 cleavage with delayed inhibitor addition [3] | EC50, SNAP-25 protection in cellular assay [4] | also measured |
| --- | --- | --- | --- | --- |
| O=C(O)CCC(=O)NO [4-(hydroxyamino)-4-oxobutanoic acid] | did not demonstrate any inhibition |  |  |  |
| O=C1CCC(=O)N1O [N-hydroxysuccinimide (NHS), N-hydroxysuccinimide] | did not demonstrate any inhibition |  |  |  |
| CO/C1=C\C(C)=C\[C@@H](C)[C@@H](O)[C@@H](C)C/C(C)=C/C=C/[C@H](OC)[C@@H]([C@@H](C)[C@@H](O)[C@H](C)[C@@]2(O)C[C@@H](O)[C@H](C)[C@@H](C(C)C)O2)OC1=O [bafilomycin A1] |  | initially effective |  | Activity when added 0.5 h after toxin exposure [2]: reduced activity; Activity when added simultaneously or immediately after BoNT/A [2]: presented activity |
| CC(=O)O[C@@H]1C[C@H](O)[C@@]23CO[C@@H](O)[C@]1(C)[C@@H]2C[C@@H](O)[C@]1(C)[C@@H]3C(=O)[C@H](OC(C)=O)[C@@]2(C)[C@H](c3ccoc3)C[C@H]3O[C@]321 [toosendanin] |  | initially effective |  |  |
| N-acetyl-N-(benzyloxy)acetamide [Compound 10] |  |  | Inactive |  |
| O-benzyl N-hydroxysuccinimide [Compound 7] |  |  | Inactive |  |
